Laboratory results: US5039665A, “Use of fructose-1,6-diphosphate for treating myocardial infarction” (priority 1990, dated 1991)
“And” between values parts separate entries of the source, which are not always exact repeats. Equal entries are not always repeated. “Also recorded” adds a separate entry of the source.

Columns and labels:
[1] = test system: dogs subjected to toxic doses of Digoxin; assay: digoxin toxicity in dogs; format: in vivo, dog
Experimental: Dogs subjected to toxic doses of Digoxin were treated with FDP and glucose. […] Also the dogs treated with FDP survived, while the controls treated with Dextrose 5% died within 3 hours after administration of Digoxin. In this paired study 10 anesthesized dogs received 3 mg. IV Digoxin as bolus injection. Five of the digs received 20 minutes after the digoxin injection 1 gm. of FDP and then on 2 mg/kg as a constant infusion for the next 3 hours. The five controls received in the same manner Dextrose 5%. […] (Pi<0.001.).

[2] = test system: dogs anesthetized with Surital; assay: analeptic effect of intra-carotid administration on Surital (thiamylal) anesthesia in dogs; format: in vivo, dog
Experimental: In this paired test 10 dogs were anesthetized with Surital 35mg/kg IV. Within 10 minutes after induction of anesthesia, a #7 Sones catheter was placed in a common carotid artery via the femoral artery under fluoroscopic guidance. […] Immediately following the contrast media injection the infusion of FDP or glucose was initiated (9-13 min. after induction of anesthesia). The FDP was prepared as a 5% solution and infused at a constant rate of 1.91 ml/min. (97.5 mg/min.) into a main carotid artery. The controls received equal amounts of 5% dextrose via the same route. The analeptic effect of FDP on signs, stages and depth of anesthesia was evaluated by determining the time required for reappearance of eyelid reflex, opening of eyes, deglutiton, response to pain, lifting of the head, sitting, and when the animal was able to walk.

[3] = test system: human WBC; assay: carbohydrate metabolism of human white blood cells in vitro; format: cell-based
Experimental: The tests were also conducted to investigate the effect of FDP on white blood cells (WBC) on metabolism in vitro. […] It was experimentally assessed whether FDP can stimulate the carbohydrate metabolism of these cells at rest. A similar phenomenon observed for normal human erythrocytes, sickle cells and dog erythrocytes. From healthy humans and dogs, the white blood cells were separated and incubated at 37° Celsius for various periods of time with FDP, glucose and normal saline. At the end of incubation, ATP and intermediates of the glycolytic pathway were assessed. […] The pyruvic acid concentration in dog WBC incubated with FDP was 10 times greater than those incubated in glucose while those for the human WBC, this difference was of much lesser degree (X2). The dihydroxyacetone (DHA) in the human and canine WBC was 5 to 10 times greater in the FDP incubated than in the glucose ones.

[4] = test system: blood; assay: blood preservation: ATP content of refrigerated blood, 25, 50 and 100 mg per 10 ml; parameters: species or system dog
Experimental: The tests were also conducted under the conditions when 25mg, 50mg, and 100mg of FDP were mixed with 10ml of blood and 25mg, 50mg, and 100mg, of glucose were mixed with 10ml of blood. […]

[5] = test system: whole blood; assay: blood preservation: ATP content of refrigerated blood; parameters: species or system dog
Experimental: Blood specimens taken from a number of dogs were mixed with FDP in the following proportions: F1-25mg of FDP per 10ml of blood and F2-50mg of FDP per 10ml of blood. The same proportion was prepared with glucose: G1-25mg of glucose per 10ml of blood and G2-50mg of glucose per 10ml of blood. The blood specimens were refrigerated for 24 hours and then the blood was tested for ATP content after 24 hours 14 days.

[6] = test system: hearts of mongrel dogs subjected to normothermic arrest; assay: global ischemia on cardiopulmonary bypass, normothermic arrest for one hour; format: in vivo, dog
Experimental: To evaluate the effect of FDP on global ischemia, 14 mongrel dogs were placed on cardiopulmonary bypass and their hearts were subjected to normothermic arrest for one hour. Seven animals had 50 ml. of 5% glucose in 0.9% NaCl infused into the base of the aorta at 0 minutes, 20 minutes and 40 minutes following cross-clamping and, systemically, during reperfusion. The remaining 7 animals were treated identically except that 50 mg. of FDP was given instead of glucose and 2mg/kg/minute was infused systemically during reperfusion. Hemodynamic measurements were taken before ischemia and at 15 and 30 minutes following reperfusion using an isovolumetric technique.

[7] = test system: fluid deprived dogs after endotoxin; assay: endotoxin shock in fluid deprived dogs (1 mg/kg endotoxin); format: in vivo, dog; conditions: no fluid given; three pairs
Text: In three pairs no fluid was given except for the FDP and glucose.

[8] = test system: dogs subjected to endotoxin shock; assay: endotoxin shock in dogs (E. coli endotoxin) with fluid support; format: in vivo, dog
Experimental: The study was also conducted to determine whether IV administration of FDP to dogs subjected to lethal doses of endotoxin will prevent damage to the intestinal mucosa, and death. The rationale was that endotoxin per se and its deleterious effect on hemolate phase acidosis inhibits glycolysis by inactivation of the rate limiting enzyme phosphofructokinase.
Endotoxin shock was produced in digs by IV injection of E. coli endotoxin. Survival of control animals which received glucose and volume replacement was 18%d while for those treated with FDP it was 90%.
FIG. 5 is a diagram showing the intestinal fluid loss and urine output of dogs subjected to endotoxin shock. Seven dogs were treated with equimolar FDP and eight received glucose. All animals received fluid supportive therapy (150 ml. of Rheomacrodex and 300 cc. of Lactate Ringer).
Seven were treated with FDP and the controls (8) received equimolar glucose.

[9] = time after beginning of infusion, individual dogs

With O=C(COP(=O)(O)O)[C@@H](O)[C@H](O)[C@H](O)COP(=O)(O)O [FDP, fructose-1,6-diphosphate] the survival ([1]; 3 mg. IV Digoxin) was “survived”, the digitalis induced dysarhythmia ([1]; 3 mg. IV Digoxin, FDP 1 gm. then 2 mg/kg infusion for 3 hours) was “suppresses significantly the digitalis induced dysarhythmia” and the “occurrence of dysarhythmia versus controls, significance” value ([1]; P < 0.001) was “significantly less in the group treated with FDP”. For the same compound, the “hemodynamic parameters (cardiac output, arterial pressure)” value ([1]; dog, in vivo) was “no alternation in hemodynamic parameters”, the “time required for return of observable eyelid reflex” value ([2]; after beginning the infusion into the carotid artery (±SDM)) was 3.70 ± 0.67 min and the “time to regain consciousness and be able to walk (in words)” value ([2]; intra-carotid administration) was “greatly reduces the time required for the animal to regain consciousness and be able to walk”. For the same compound, the “time required to regain walking ability” value ([2]; mean, p<0.001 FDP vs dextrose) was 76.6 ± 16 min, the “Able To Sit” value [2, 9] was 48 min and 47 min and 35 min and 52 min and 40 min and the “Able To Walk” value [2, 9] was 60 min and 70 min and 50 min and 95 min and 82 min. For the same compound, the “Eyes Open” value [2, 9] was 7 min and 14 min and 5 min and 12 min and 4 min, the “Lifts Head” value [2, 9] was 28 min and 33 min and 14 min and 19 min and 20 min and the “Response To Pain” value [2, 9] was 17 min and 19 min and 10 min and 18 min and 15 min. The “effect on carbohydrate metabolism” value [3] was “profound stimulating effect on the carbohydrate metabolism”, the “concentration dependence of ATP production” value ([3]; 5 to 50 mg/ml FDP, no AMP or ADP) was “independent of the concentration (from 5 to 50 mg/ml), but rather a function of the incubation time” and the “concentration dependence of ATP increase” value ([3]; AMP or ADP added) was “the increase of ATP becomes a function of the FDP concentration”. The ATP content ([3]; incubated at 37° Celsius) was 2.47±0.25 m.mole/#WBC, the ATP ([4]; 25 mg with 10ml of blood, 24 hours) was 1.67 m mole/ml and the ATP ([4]; 25 mg with 10ml of blood, 48 hours) was 1.92 m mole/ml. It also gave an ATP ([4]; 50 mg with 10ml of blood, 24 hours) of 2.2 m mole/ml, an ATP ([4]; 50 mg with 10ml of blood, 48 hours) of 2.85 m mole/ml and an ATP ([4]; 100 mg with 10ml of blood, 24 hours) of 2.82 m mole/ml. It also gave an ATP ([4]; 100 mg with 10ml of blood, 48 hours) of 3.40 m mole/ml, an ATP ([5]; 25mg per 10ml of blood, 24 hours) of 2.32 m mole/ml and an ATP ([5]; 25mg per 10ml of blood, 48 hours) of 2.34 m mole/ml. The ATP ([5]; 25mg per 10ml of blood, 7 days, Incubate 30' 37°) was 0.70 m mole/ml, the ATP ([5]; 25mg per 10ml of blood, 9 days) was 0.82 m mole/ml and the ATP ([5]; 50mg per 10ml of blood, 24 hours) was 3.34 m mole/ml. For the same compound, the ATP ([5]; 50mg per 10ml of blood, 48 hours) was 2.08 m mole/ml, the ATP ([5]; 50mg per 10ml of blood, 7 days, Incubate 30' 37°) was 2.16 m mole/ml and the ATP ([5]; 50mg per 10ml of blood, 9 days) was 2.04 m mole/ml. The ATP ([5]; 14 days, Incubate 40' 37°) was 1.3 m mole/ml, the ATP ([5]; 14 days, No incubation) was 1.22 m mole/ml and the “ML to LVEDP of 20 mmHg” value ([6]; 15 minutes after reperfusion) was 33.6 ± 3.7 mL. For the same compound, the “Peak Effective pressure” value ([6]; 15 minutes after reperfusion) was 102.1 ± 11.5 mmHg, the “Peak Mean pressure” value ([6]; 15 minutes after reperfusion) was 52.8 ± 5.4 mmHg and the Peak dp/dt ([6]; 15 minutes after reperfusion) was 2242 ± 226 mmHg/sec. For the same compound, the “ML to LVEDP of 20 mmHg” value ([6]; 30 minutes after reperfusion) was 36.1 ± 3.3 mL, the “Peak Effective pressure” value ([6]; 30 minutes after reperfusion) was 125 ± 11.5 mmHg and the “Peak Mean pressure” value ([6]; 30 minutes after reperfusion) was 61.4 ± 5.1 mmHg. For the same compound, the Peak dp/dt ([6]; 30 minutes after reperfusion) was 3999 ± 404 mmHg/sec, the “contractility and compliance during recovery” value ([6]; Intra-aortic and systemic administration) was “Both contractility and compliance are vastly improved” and the “ML to LVEDP of 20 mmHg” value ([6]; Pre-Ischemia) was 39.3 ± 3.2 mL. The “Peak Effective pressure” value ([6]; Pre-Ischemia) was 165 ± 12.9 mmHg, the “Peak Mean pressure” value ([6]; Pre-Ischemia) was 77.5 ± 4.6 mmHg and the Peak dp/dt ([6]; Pre-Ischemia) was 4710 ± 689 mmHg/sec. The survival [7] was “survived and are still living (five months after the experiment)”, the Urinary output ([8]; dog, in vivo) was 276±98 ml/6 hours and the “blood in the fluid lost from the intestine” value ([8]; dog, in vivo) was “no blood was observed; also recorded: no blood was noted”. The intestinal fluid loss ([8]; dog, in vivo) was 285±36 ml/6 hours, the “stomach and intestine mucosa findings” value ([8]; dog, in vivo) was “only some vascular congestion was noted” and the survival ([8]; dog, in vivo) was 90%. The “death, intestinal hemorrhage and fluid loss, renal function, mucosal necrosis” value ([8]; lethal doses of endotoxin) was “prevents death, intestinal hemorrhage and fluid loss, conserves normal renal function and protects the mucosa of the stomach and intestine from hemorrhagic necrosis”.
